From patent US10987344B2, “Pharmaceutical composition capable of the incorporation of lenalidomide in various crystalline modifications” (GRINDEKS, A JOINT STOCK COMPANY, priority 2015, dated 2021)
In brackets after ≈: the same amount, converted by molar mass. Structures can show the parent of a compound that is named as a salt. Where two headings read alike, the source gives them in different places.

What was measured:
[1] = Solubility of Lenalidomide modifications: saturated solutions in three media, HPLC analysis; format: physicochemical
Method: As the case for their visual appearance, also the solubility of those different Lenalidomide modifications is quite different.
• Solubilities are determined by preparing saturated solutions in the three media, followed by HPLC-analysis.

[2] = Particle size distribution (d90), Malvern Mastersizer 2000, wet dispersion in cyclohexane; format: physicochemical
Method: The D90 value is defined such that 90% by volume of the particles have a particle size smaller than the d90 value and 10% by volume of the particles have a greater particle size greater than the d90 value.
Sample solution. Place 50 mg of well mixed sample to a 100 mL beaker. Add 25 mL of cyclohexane. Using Pasteur pipette transfer small aliquots of sample slurry to the measuring cuvette until the concentration reading is good. The beaker is swirled efficiently before each pipetting.
Measurement according to the operating instructions. Perform three successive determinations, from which calculate the mean value.

[3] = as prepared in reference example 1 (not milled)
[4] = 0.1M hydrochloric acid, pH 1, simulated gastric fluid, thermodynamic from solid, 0.1M HCl, pH 1.0, read-out: Solubility
[5] = acetate buffer, pH 4.5, aqueous buffer, thermodynamic from solid, Acetate buffer, pH 4.5, read-out: Solubility
[6] = phosphate buffer, pH 6.8, aqueous buffer, thermodynamic from solid, Phosphate buffer, pH 6.8, read-out: Solubility

Row | Structure (SMILES) | Solubility ([1]; 0.1M HCl, pH 1.0) [µg/mL] | Solubility relative to base form B ([1]; 0.1M hydrochloric acid at pH1) | Solubility ([1]; Acetate buffer, pH 4.5) [µg/mL] | Solubility ([1]; Phosphate buffer, pH 6.8) [µg/mL] | PSD, d90 [2, 3] [μm] | PSD, d90 ([2]; example 2, after milling 15 min at 20 Hz, listed as Hydrochloride salt) [μm] | PSD, d90 ([2]; example 2, after milling 15 min at 20 Hz) [μm] | PSD, d90 ([2]; example 2, after milling 15 min at 20 Hz, listed as Ammonium chloride cocrystal) [μm] | Solubility [1, 4] [µg/mL] | Solubility [1, 5] [µg/mL] | Solubility [1, 6] [µg/mL]
1 | Nc1cccc2c1CN(C1CCC(=O)NC1=O)C2=O (stereo not shown) [HCl salt] | 9000 | more than 3 times | 370 | 330 | 434 | 43 |  |  |  |  | 
2 | Nc1cccc2c1CN(C1CCC(=O)NC1=O)C2=O (racemic) [Base form A, (RS)-3-(4-Amino-1-oxo 1,3-dihydro-2H-isoindol-2-yl)piperidine-2,6-dione] | 4760 (≈ 18400 µM) |  | 430 (≈ 1660 µM) | 390 (≈ 1500 µM) | 219 |  | 35 |  |  |  | 
3 | Nc1cccc2c1CN(C1CCC(=O)NC1=O)C2=O (stereo not shown) [NH4Cl cocrystal] | 7760 |  | 420 | 360 | 383 |  |  | 31 |  |  | 
4 | Nc1cccc2c1CN(C1CCC(=O)NC1=O)C2=O (stereo not shown) [DMSO solvate] |  |  |  |  |  |  |  |  | 6330 | 380 | 350
5 | Nc1cccc2c1CN(C1CCC(=O)NC1=O)C2=O (racemic) [Base form B, (RS)-3-(4-Amino-1-oxo 1,3-dihydro-2H-isoindol-2-yl)piperidine-2,6-dione] |  |  |  |  |  |  |  |  | 2740 (≈ 10600 µM) | 330 (≈ 1270 µM) | 330 (≈ 1270 µM)
